Source: patent US12378189B2, “Multi-aziridine compound” (priority 2020, dated 2025)

Legend:
[1] = tested on: Bscl2-GFP and Rtkn-GFP reporters in mouse embryonic stem (mES) cells; assay: ToxTracker genotoxicity assay, overall conclusion from Bscl2-GFP and Rtkn-GFP; conditions: positive: >= 2-fold induction at one of 10, 25, 50% cytotoxicity, with or without S9; not genotoxic: <= […] at all
Protocol: This methodology uses a two step-approach.
Metabolic was evaluated by addition of S9 liver extract. […] Only GFP expression in intact single cells is determined.

[2] = tested on: Rtkn-GFP reporter in mouse embryonic stem (mES) cells; assay: ToxTracker genotoxicity assay, Rtkn-GFP reporter induction;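 also: GFP reporter signal quantified solely in intact single cells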
Protocol: (§1) The genotoxicity can be measured by the ToxTracker® assay (Toxys, Leiden, the Netherlands) as further described herein.
(§2) Genotoxicity of examples and comparatives was evaluated by the ToxTracker® assay (Toxys, Leiden, the Netherlands). The ToxTracker assay is a panel of several validated Green Fluorescent Protein (GFP)-based mouse embryonic stem (mES) reporter cell lines that can be used to identify the biological reactivity and potential carcinogenic properties of newly developed compounds in a single test. This methodology uses a two step-approach.
(§3) In the first step a dose range finding was performed using wild-type mES cells (strain B4418). 20 different concentrations for each compound was tested, starting at 10 mM in DMSO as highest concentration and nineteen consecutive 2-fold dilutions.
(§4) Genotoxicity was evaluated at 10, 25 and 50% cytotoxicity in absence and presence of rat S9 liver extract-based metabolizing systems (aroclor1254-induced rats, Moltox, Boone, NC, USA). The independent cell lines were seeded in 96-well cell culture plates, 24 h after seeding the cells in the 96-well plates, fresh ES cell medium containing the diluted test substance was added to the cells. For each tested compound, five concentrations are tested in 2-fold dilutions. The highest sample concentration will induce significant cytotoxicity (50-70%). In case of no or low cytotoxicity, 10 mM or the maximum soluble mixture concentration is used as maximum test concentration. Cytotoxicity is determined by cell count after 24 h exposure using a Guava easyCyte 10HT flow cytometer (Millipore).
(§5) GFP reporter induction is always compared to a vehicle control treatment.
(§6) All compounds were tested in at least three completely independent repeat experiments. Positive reference treatment with cisplatin (DNA damage) were included in all experiments. Metabolic was evaluated by addition of S9 liver extract. Cells are exposed to five concentrations of the test compound in the presence of S9 and required co-factors (RegenSysA+B, Moltox, Boone, NC, USA) for 3 h. After washing, cells are incubated for 24 h in fresh ES cell medium. Induction of the GFP reporters is determined after 24 h exposure using a Guava easyCyte 10HT flow cytometer (Millipore). Only GFP expression in intact single cells is determined. Mean GFP fluorescence and cell concentrations in each well is measured, which is used for cytotoxicity assessment. Data was analyzed using ToxPlot software (Toxys, Leiden, the Netherlands). The induction levels reported are at compound concentrations that induce 10%, 25% and 50% cytotoxicity after 3 h exposure in the presence of S9 rat liver extract and 24 h recovery or alternatively after 24 h exposure when not in the presence of S9 rat liver extract.

[3] = tested on: Bscl2-GFP reporter in mouse embryonic stem (mES) cells; assay: ToxTracker genotoxicity assay, Bscl2-GFP reporter induction
Protocol: as §1, §2, §3, §4, §5, §6

[4] = with S9 rat liver extract, concentration inducing 10% cytotoxicity, 3 h exposure, 24 h recovery
[5] = with S9 rat liver extract, concentration inducing 25% cytotoxicity, 3 h exposure, 24 h recovery
[6] = with S9 rat liver extract, concentration inducing 50% cytotoxicity, 3 h exposure, 24 h recovery
[7] = without S9 rat liver extract, concentration inducing 10% cytotoxicity, 24 h exposure
[8] = without S9 rat liver extract, concentration inducing 25% cytotoxicity, 24 h exposure
[9] = without S9 rat liver extract, concentration inducing 50% cytotoxicity, 24 h exposure

| Compound | Genotoxicity test result (conclusion) [1] | Rtkn induction level [2, 4] [fold] | Rtkn induction level [2, 5] [fold] | Rtkn induction level [2, 6] [fold] | Rtkn induction level [2, 7] [fold] | Rtkn induction level [2, 8] [fold] | Rtkn induction level [2, 9] [fold] | Bscl 2 induction level [3, 4] [fold] | Bscl 2 induction level [3, 5] [fold] | Bscl 2 induction level [3, 6] [fold] | Bscl 2 induction level [3, 7] [fold] | Bscl 2 induction level [3, 8] [fold] | Bscl 2 induction level [3, 9] [fold] |
| --- | --- | --- | --- | --- | --- | --- | --- | --- | --- | --- | --- | --- | --- |
| CCCCOCC(CN1CC1)OC(=O)NCCCCCC/N=c1\oc(=O)n(CCCCCCNC(=O)OC(COCCCC)CN2CC2)c(=O)n1CCCCCCNC(=O)OC(COCCCC)CN1CC1 (stereo not shown) [Ex. 5] | non-genotoxic | 1.0 | 0.9 | 1.0 | 1.0 | 1.1 | 1.0 |  |  |  |  |  |  |
| O=C(CCN1CC1)OCC(CO)(COC(=O)CCN1CC1)COC(=O)CCN1CC1 [Comp Ex 5, pentaerythritol tris(3-(1-aziridinyl)propionate)] | genotoxic |  |  |  |  |  |  |  |  |  |  |  |  |
| CCCCCCCCCC(=O)OCC(CN1CC1)OC(=O)NCCCCCCn1c(=O)n(CCCCCCNC(=O)OC(COC(=O)CCCCCCCCC)CN2CC2)c(=O)n(CCCCCCNC(=O)OC(COC(=O)CCCCCCCCC)CN2CC2)c1=O (stereo not shown) [Ex. 3] | non-genotoxic | 1.3 | 1.5 | 1.5 | 1.3 | 1.5 | 1.5 | 1.1 | 1.2 | 1.2 | 1.1 | 1.2 | 1.4 |
| CCCCOCC(CN1CC1)OC(=O)NCCCCCCn1c(=O)n(CCCCCCNC(=O)OC(COCCCC)CN2CC2)c(=O)n(CCCCCCNC(=O)OC(COCCCC)CN2CC2)c1=O (stereo not shown) [Ex. 1] | non-genotoxic | 1.0 | 1.1 | 1.1 | 1.0 | 1.0 | 0.9 |  |  |  |  |  |  |
| O=C(NCCCCCCn1c(=O)n(CCCCCCNC(=O)OCCN2CC2)c(=O)n(CCCCCCNC(=O)OCCN2CC2)c1=O)OCCN1CC1 [Comp. Ex. 2] | genotoxic | 2.0 | 3.4 | 3.0 | 1.7 | 2.4 | 2.8 |  |  |  |  |  |  |
| CCCCOCC(CN1CC1)OC(=O)NC1CCC(CC2CCC(NC(=O)OC(COCCCC)CN3CC3)CC2)CC1 (stereo not shown) [Comp. Ex 4] | genotoxic | 1.1 | 1.6 | 1.9 | 1.2 | 1.5 | 2.1 |  |  |  |  |  |  |
| CC(CN1CC1)OC(=O)NCCCCCCn1c(=O)n(CCCCCCNC(=O)OC(C)CN2CC2)c(=O)n(CCCCCCNC(=O)OC(C)CN2CC2)c1=O (stereo not shown) [Comp. Ex. 3] | genotoxic | 1.3 | 2.1 | 2.2 | 1.3 | 1.8 | 1.9 |  |  |  |  |  |  |
